{
  "source": "patent US20250210128A1",
  "about": "“COMPUTER-IMPLEMENTED DESIGN OF PEPTIDE:RECEPTOR SIGNALING COMPLEXES FOR ENHANCED CHEMOTAXIS” (Ecole Polytechnique Federale de Lausanne (EPFL), priority 2022, published 2025)",
  "tested_on": "primary human T cells",
  "assay": "Boyden chamber migration assay of T cells transduced with CXCR4 variants",
  "type": "cell-based",
  "conditions": "100 nM wild-type CXCL12 full-length chemokine",
  "experimental": "T cells transduced and selected for CXCR4 variant expression from 3-6 donors were stained with 1 uM Vybrant DiO cell-labeling solution (Thermo, ref. V22886) in serum-free RPMI 1640+GlutaMax. 40,000 cells in 75 uL were seeded in each well of 96-well Boyden chambers with 5.0 μm pores (Corning, ref. 3388)^42. Reservoirs were filled with 200 uL serum-free RPMI 1640+GlutaMax or supplemented with 100 nM chemokine. The bottom of the attractant reservoir was imaged for migrated cells over the course of 8 hours with a Cytation 5 BioSpa (Biotek) at 37° C. with 5% CO2. Fluorescent spots were counted over time and compared to the no-chemokine control to calculate the migration index (#migrated cells towards attractant/#migrated cells towards no-attractant). The peak migration index was averaged between 3 technical replicates for each transduced donor per attractant concentration were plotted.",
  "data": [
    {"substance": "WT CXCR4: wild-type human CXCR4 (SEQ ID NO: 1; with N-terminal 3xHA-tag SEQ ID NO: 2)", "values": [
      {"measurement": "migration (fold-migration over no-chemoattractant control)", "result": "around 1.5 fold"}
    ]}
  ]
}
